Measured values as given in patent US9604973B2, “Anti-cancer polyketide compounds” (priority 2012, dated 2017).

Legend:
[1] = tested on: GAPDH; experiment: RT-PCR of spliced and unspliced mRNA (intron retention) in CLL cells, housekeeping gene; assay type: cell-based, human; conditions: 4 hours, same concentrations
Protocol: (§1) FIG. 23: FD-895 and PLAD induced inhibition of splicing in CLL: RT-PCR for analysis of spliced and unspliced mRNAs. CLL cells treated with FD-895, PLAD (10, 100 nM), chemotherapeutic agent like bendamustine (33, 100 μM) and F-Ara-A (3, 10, 33 μM) for 4 hours. RT-PCR for DNAJB1 was performed with primers spanning two exons; products were analyzed on ethidium bromide-stained agarose gels (2%) to visualize the correct size of the unspliced mRNAs. […] The exon structure of DNAJB1 gene is indicated. G, human genomic DNA was used as a control; U, unspliced mRNA; S, spliced mRNA.
(§2) CLL cells were treated with 10 and 100 nM of FD-895 and PLAD, 33 and 100 μM of bendamustine and 3, 10, and 33 μM of F-Ara-A for 4 h. Normal B and CLL cells were treated with 100 nM of FD-895 and PLAD and 10 μM of F-Ara-A for 15 minutes, 30 minutes, 1, 2 and 4 h. Total RNA was extracted using mirVana™ miRNA isolation kit (Ambion Life Technology, USA). After DNase treatment, 200 ng total RNA was reverse-transcribed using a SuperScript™ III first-strand synthesis system (Invitrogen). PCR was performed on 10 ng of the obtained cDNA (or human genomic DNA as a control) in 25 μl of reaction mixture containing Plantinum® PCR SuperMix High-fidelity (Invitrogen Life Technology, USA), and 0.1 μM of each primer of the appropriate pair.
(§3) PCR conditions were 94° C. for 3 min; 35 cycles of 94° C. for 30 s, 60° C. for 30 s, and 72° C. for 1 min; followed by 72° C. for 5 min. PCR products were separated on a 2% agarose gel and stained with ethidium bromide.

[2] = tested on: DNAJB1; experiment: RT-PCR of spliced and unspliced mRNA (intron retention) in CLL cells; assay type: cell-based, human; conditions: 4 hours, FD-895, PLAD 10, 100 nM, bendamustine 33, 100 μM, F-Ara-A 3, 10, 33 μM
Protocol: as §1, §2, §3

[3] = tested on: CLL cells; experiment: Flow cytometry, % specific induced apoptosis (DiOC6/PI) in primary CLL cells; assay type: cell-based, human; conditions: Homo sapiens, CLL cell; CLL cells from patient with del (17p) and Tp53 mutation, 48 hours
Protocol: FIG. 20A-20C: FD-895 and PLAD induce apoptosis in CLL cells but not in normal lymphocytes with a TP53 independent activity: Primary leukemia B cells from CLL (FIG. 20A) patient with del (17p) and Tp53 mutation, (FIG. 20B) patient with wild type p53 and sensitive to F-Ara-A and (FIG. 20C) normal lymphocytes from healthy donor were incubated with FD-895, PLAD and F-Ara-A (0, 10, 100, 1000 10,000 nM) for 48 hours.
FIG. 21: FD-895 and PLAD induce apoptosis in CLL cells not ONLY independently of Tp53 but also independently of SF3B1 mutational status: Primary leukemia B cells from CLL patient with SF3B1 wild, SF3B1 mutation, 17p DEL and normal B and T lymphocytes from healthy donor were incubated with FD-895 and PLAD with 100 nM for 48 hours. After incubation, the samples were harvested and % SIA was measured by flow cytometry as described above. […] Each dots represents number of CLL patient sample and normal B or T cells.
Peripheral blood mononuclear cells (PBMC) from patients with CLL were obtained from the CLL Research Consortium (CRC) tissue bank. The blood samples were collected after obtaining a written informed consent from the patients under a protocol approved by the institutional review board of The University of California, San Diego. All patients met criteria for CLL.^1 CLL B cells and PBMCs were separated from heparinized venous blood of the B-CLL patients by density gradient centrifugation using Ficoll-Hypaque (GE healthcare) as described earlier.^2 The samples that were used had more than 95% positive cells for CD19 and CD5+, as assessed by flow cytometry. CLL B cells were maintained in RPMI 1640 medium supplemented with 10% FBS, 2 mM L-glutamine, and 100 U/mL of penicillin and 100 μg/mL of streptomycin at 37° C. in an atmosphere of 5% CO2.
Apoptotic and viable cells were discriminated via flow cytometry of cells stained with 3,3′ dihexyloxacarbocyanine iodide (DiOC6) (Molecular Probes, Eugene, Oreg., USA) and propidium iodine (Sigma, St Louis, Mo., USA), as described.^3 Using this method viable cells exclude PI and stain brightly positive for DiOC6.

[4] = tested on: HCT-116 cell line; experiment: MTT cell proliferation assay; assay type: cell-based; conditions: HCT-116 cell line; for IC50: MTT
Description: Structure Activity Relationships (SAR) studies for 1SS, […], 1RS, and […]. It has been reported that ablation of C3, C6 and C7 substituents is detrimental to activity. […] (See FIG. 4). Additional activity was also observed when C17 was left in its natural R configuration.

In the case of `Cn1c(CCCC(=O)O)nc2cc(N(CCCl)CCCl)ccc21` [Bendamustine], the “splicing inhibition of housekeeping gene GAPDH” value [1] is reported as “Neither FD-895, PLAD nor chemotherapy agents showed splicing inhibition” and the “intron retention/splicing inhibition of DNAJB1” value [2] is reported as “did not show intron retention/splicing inhibition”.
Work on `Nc1nc(F)nc2c1ncn2[C@@H]1O[C@H](COP(=O)(O)O)[C@@H](O)[C@@H]1O` [F-Ara-A, Fludarabine phosphate] yielded an IC50 [3] greater than 10000 nM.
With `CC[C@H](OC)[C@@H](C)[C@H]1O[C@@H]1[C@H](O)[C@@H](C)/C=C/C=C(\C)[C@H]1OC(=O)C[C@H](O)CC[C@@](C)(O)[C@@H](OC(C)=O)/C=C/[C@@H]1C` [Isomer 1RS] the “times more active than FD-895” value [4] was roughly 25 times and the IC50 [4] was 0.8 ± 0.05 nM.
With `CC[C@H](OC)[C@@H](C)[C@H]1O[C@@H]1[C@@H](O)[C@H](C)/C=C/C=C(\C)[C@H]1OC(=O)C[C@H](O)CC[C@@](C)(O)[C@@H](OC(C)=O)/C=C/[C@@H]1C` [Isomer 1SR] the IC50 [4] was 3.7 ± 0.2 nM.
In the case of `CC[C@H](OC)[C@@H](C)[C@H]1O[C@@H]1[C@@H](O)[C@@H](C)/C=C/C=C(\C)[C@H]1OC(=O)C[C@H](O)CC[C@@](C)(O)[C@@H](OC(C)=O)/C=C/[C@@H]1C` [Isomer 1SS], the IC50 ([4]; Homo sapiens) is reported as 23 ± 1.2 nM.
